Results on eleven compounds are retold here after US7153815B2, “Insecticide containing hydrazone derivative as the active ingredient and novel hydrazone derivative” (Nihon Nohyaku Co., Ltd., priority 2002, dated 2006).

Test [1] has as its system larvae of cabbage moth (Plutella xylostera). Kind of test: Insecticidal effect against larvae of cabbage moth (leaf immersion). Format: in vivo. The method, then:
Insecticidal Effect Against Larvae of Cabbage Moth (Plutella xylostera)
(§1) A piece of cabbage leaf (diameter: 6 cm) was immersed for 1 minute in a water-diluted solution of the insecticide (wettable powder) of the present invention prepared according to the prescription of Formulation Example 1. After immersion, the cabbage was air-dried and placed in a plastic cup (inner diameter: 7 cm), and then inoculated with 5 larvae of cabbage moth in the third stage therein (1-concentration, 2-repetion). The cup was allowed to stand in a room thermostated at 25° C. Four days after the inoculation, dead or alive larvae or suffuring larvae were counted, and mortality (%) was calculated wherein a suffering larva was regarded as 0.5 dead larva. When compounds of Compound Nos. described below were subjected to the test, the mortality was 100% in a compound concentration of 500 ppm. In the meanwhile, the Compounds Nos. correspond to ones in Tables 1 to 8.

In test [2] the test system is larvae of common cutworm (Spodoptera litura). Briefly: Insecticidal effect against larvae of common cutworm (leaf immersion). The note with it: in Brassica oleracea. Format: in vivo. The method, then:
Insecticidal Effect Against Larvae of Common Cutworm (Spodoptera litura)
as §1, with “powder),of” for “powder) of”, “common cutworm” for “cabbage moth”

Turning to `O=C(NCc1ccc(Cl)nc1)C(Cl)=NNc1ccc(C(F)(F)F)cc1` [Compound No. 5, N-(6-chloro-3-pyridylmethyl)-2-chloro-2-(4-trifluoromethylphenyl hydrazono) acetic acid amide], in test [1], the mortality (commonly the percentage killed) at 500 ppm was 100%.

`CC(=NNc1ccc(C(F)(F)F)cc1)C(=O)NCc1ccc(Cl)cc1` [Compound No. 62, N-(4-chlorobenzyl)-2-(4-trifluoromethylphenyl hydrazono) propionic acid amide]: the mortality at 500 ppm in test [1] and in test [2] was 100% throughout.

On to `CC(=NNc1ccc(C(F)(F)F)cc1)C(=O)NCc1ccc(Cl)nc1` [Compound No. 63, N-(6-chloro-3-pyridylmethyl)-2-(4-trifluoromethylphenyl hydrazono) propionic acid amide], for which the mortality at 500 ppm in test [1] and in test [2] was 100% each time.

The compound `COc1ccc(CNC(=O)C(C)=NNc2ccc(Cl)cc2)cc1` [Compound No. 93, N-(4-methoxybenzyl)-2-(4-chlorophenyl hydrazono) propionic acid amide] had a mortality at 500 ppm in test [1] of 100%.

As for `C/C(=N\Nc1ccc(Cl)cc1)C(=O)NNc1ccc(Cl)cc1` [Compound No. 104, (E)-N′-(4-chlorophenyl)-2-(4-chlorophenyl hydrazono) propionic acid hydrazide], the mortality at 500 ppm in test [1] and in test [2] was 100% in each case.

With `C/C(=N/Nc1ccc(Cl)cc1)C(=O)NNc1ccc(Cl)cc1` [Compound No. 105, (Z)-N′-(4-chlorophenyl)-2-(4-chlorophenyl hydrazono) propionic acid hydrazide], the mortality at 500 ppm in test [1] and in test [2] was 100% throughout.

As for `CC(=NN(C)c1ccc(C(F)(F)F)cc1)C(=O)NCc1ccc(Cl)cc1` [Compound No. 109, N-(4-chlorobenzyl)-2-[N-methyl-N-(4-trifluoromethylphenyl) hydrazono]propionic acid amide], the mortality at 500 ppm in test [1] and in test [2] was 100% each time.

Turning to `CC(=NN(C)c1ccc(C(F)(F)F)cc1)C(=O)NCc1ccc(Cl)nc1` [Compound No. 110, N-(6-chloro-3-pyridylmethyl)-2-[N-methyl-N-(4-trifluoromethylphenyl) hydrazono]propionic acid amide], the mortality at 500 ppm in test [1] and in test [2] was 100% each time.

In test [1], `CCOCC(=NNc1ccc(C(F)(F)F)cc1)C(=O)NCc1ccc(Cl)nc1` [Compound No. 170, N-(6-chloro-3-pyridylmethyl)-3-ethoxy-2-(4-trifluoromethylphenyl hydrazono) propionic acid amide] gave a mortality at 500 ppm of 100%.

`N#CC(=NNc1ccc(C(F)(F)F)cc1)C(=O)NCc1ccc(Cl)nc1` [Compound No. 184, N-(6-chloro-3-pyridylmethyl)-2-cyano-2-(4-trifluoromethylphenyl hydrazono) acetic acid amide]: the mortality at 500 ppm in test [1] and in test [2] was 100% throughout.

On to `CNC(=NNc1ccc(C(F)(F)F)cc1)C(=O)NCc1ccc(Cl)nc1` [Compound No. 191, N-(6-chloro-3-pyridylmethyl)-2-methylamino-2-(4-trifluoromethylphenyl hydrazono) acetic acid amide], for which the mortality at 500 ppm in test [1] and in test [2] was 100% in each case.
